The values that follow come from publication PMC12880750, “Mechanistic insights and in vivo HIV suppression by the BRD4-targeting small molecule ZL0580” (PLOS Pathogens, 2026).

Assay [1] relates to BRD4-knockout (KO) J-Lat cells. In words: RT-qPCR of differentially expressed genes, BRD4-KO J-Lat cells. In kind it is cell-based, human. The conditions noted are these: same treatments. Here is the method: To validate the RNA-Seq results, RT-qPCR analysis was performed on a subset of differentially expressed genes (DEGs) (Fig 3E). Eight representative DEGs were selected based on statistical significance (adjusted p values) and their involvement in key pathways identified by GSEA, including lipid metabolism/cholesterol biosynthesis (HMGCS1, SQLE, DHCR7) and cytokine signaling (ITK and DUSP8). Relative gene expression levels were normalized to the housekeeping gene GAPDH. […] As an additional control, RT-qPCR was also performed on RNA isolated from BRD4-knockout (KO) J-Lat cells that received the same treatments. The generation and characterization of BRD4-KO J-Lat cells were described previously.
RT-qPCR was performed as previously reported.
(Quantitative PCR measures a nucleic acid by following its amplification.)

Assay [2] concerns HIV-1 JR-CSF. In words: Cell-associated HIV DNA in blood cells of Hu-mice. It is filed as in vivo, CD34+ Hu-NSG mice (Hu-mice). The conditions noted are these: qPCR, per 10^7 PB cells. An excerpt:
To assess whether ZL0580 or ART affects HIV DNA levels, we quantified cell-associated HIV DNA in the peripheral blood of Hu-mice after treatments. Blood cells collected at weeks 7, 11 and 13 were subjected to DNA extraction and quantification of HIV DNA by qPCR. […] By week 13, HIV DNA levels also remained similar across all groups (Fig 7C).
Mice were 16-week-old at the initiation of the experiments. All mice received human CD34 + stem cells of a single donor and human immune cell reconstitution was confirmed for all mice. A total of 12 Hu-mice were initially included in the study with each tagged and assigned with a unique ID. […] Blood/plasma viral loads were monitored and quantified weekly by a single-step RT-qPCR until systemic HIV infection was established. […] Plasma samples were collected from mice either weekly or biweekly for quantification of viral loads (RNA copies). Blood cells were also collected at weeks 7 and 13 for quantification of cell-associated HIV DNA in blood. Mouse weights were monitored after treatment.
Quantification of cell-associated HIV DNA in blood cells was performed by qPCR as previously described with modifications. Blood cells were counted and subjected to DNA extraction using the Qiagen QIAamp DNA Blood Mini Kit (QIAGEN). qPCR primers and probe: Forward: 5′-[…]-3′, Reverse: 5′-[…]-3′, Probe: 5’-/5HEX/[…]/ZEN/GCC […]/3IABkFQ. […]

Assay [3] relates to CDK9 binding to HIV 5′-LTR in J-Lat cells (10.6). In words: ChIP-qPCR of CDK9 binding to HIV 5'-LTR. In kind it is cell-based, human. The conditions noted are these: PMA (50ng/ml) + compound 5 μM, 24 hours.
Procedure: Twenty-four hours later, cells were subjected to ChIP-qPCR using an anti-CDK9 antibody, with isotype IgG as the ChIP control.
24 hours after treatments, ChIP-qPCR was performed using a CDK9-specific antibody to examine the recruitment of CDK9 to HIV 5’-LTR in J-Lat cells. ChIP using an isotype IgG was included for normalization. Data were shown as fold change in the precipitated HIV 5′ LTR by the CDK9 antibody relative to the control isotype IgG for each treatment condition.
ChIP was performed using a method reported previously [41]. About 15 × 10⁶ J-Lat cells were treated according to the conditions described in the Main Text. After treatment, cells were collected, washed once with PBS, and resuspended in 10 mL PBS. To cross-link protein–DNA complexes, cells were fixed with 37% formaldehyde, and the reaction was quenched by adding 10Xglycine and incubating for 5 min at room temperature. The cells were then pelleted by centrifugation, and the pellets were incubated in ice-cold lysis buffer for 30 min. […] After extensive washing with the appropriate ChIP buffers, immune complexes were eluted, reverse cross-linked, and treated with proteinase K. DNA was purified using phenol–chloroform extraction and subsequently analyzed by qPCR. […] ChIP-qPCR results were quantified using the fold-enrichment method as previously reported [41].
Assay [4] relates to BRD4 BD2. Further details: method as in PMID 31329163. The conditions noted are these: in vitro binding affinity; cited from earlier work.
Assay [5] has as its target T1, BRD4 BD1 WT (Homo sapiens, UniProt O60885).
T1 construct: Constructs used for mutagenesis, including wild-type BD1 (BD1 WT), BD1 with an E151A mutation (BD1 E151A), and wild-type BD2 (BD2 WT); GST (cleaved yes); made in house
The experiment in a line: Thermal shift assay (TSA/DSF), BD1 WT. It is filed as binding. As to conditions: eight increasing concentrations. How it is done: (§1) The melting temperatures shifts (ΔTm) were measured and the ΔTm curves as a function of compound-to-protein ratios were generated (Fig 2B–2C). […] As an additional control, the Tm of WT BD1 and E151A mutant in the absence of compound was also measured by TSA.
(§2) Plasmid construction and subsequent protein expression and purification of BRD4 proteins were performed using OverExpress C43(DE3) bacterial competent cells (Lucigen) as described in our previous studies. In brief, 12 L of bacterial cultures grown to OD600 between 0.6-0.8 were induced at 37°C for 4 h by 1 mM isopropyl […] (IPTG). Bacterial sonication supernatant in the lysis buffer (500 mM NaCl, 20 mM Tris-HCl pH 7.9 at 4°C, 20% glycerol, 1 mM EDTA, 0.2 mM DTT, and protease inhibitors) was incubated with glutathione (GSH) agarose beads (GOLDBIO, G-250–100) overnight with rotation at 4°C. The protein-bound GSH beads were washed three times with the lysis buffer and digested with human rhinovirus 3C protease (HRV-P3C; Thermal Fisher 88946) at 4°C for 4 h, according to the manufacture’s procedure, to remove GST tag from BD1/2 proteins. Untagged BRD4-BD1 and -BD2 were separated from HRV-P3C via passing through a HiTrap Q HP anion exchange chromatography column (GE Healthcare, GE17-1154-01) and eluted by a salt gradient from 100 mM to 1 M NaCl. […]

For assay [6], the target named is T2, BRD4 BD1 E151A (Homo sapiens, UniProt O60885, E151A).
T2 construct: Constructs used for mutagenesis, including wild-type BD1 (BD1 WT), BD1 with an E151A mutation (BD1 E151A), and wild-type BD2 (BD2 WT); GST (cleaved yes); made in house
In words: Thermal shift assay (TSA/DSF), BD1 E151A mutant. In kind it is binding. The conditions noted are these: eight increasing concentrations. Here is the method: as §1, §2

As for `O=C(Nc1ccc(C(F)(F)F)cc1)Nc1ccc(S(=O)(=O)N2CCC[C@H]2C(=O)Nc2ccccc2)cc1` [ZL0580], the “Contrasting regulatory effects on representative DEGs in the absence of BRD4” value in assay [1] was “largely abolished”. In addition, in assay [2], the “HIV DNA copies in peripheral blood cells at week 7, among groups incl. EV control” value is on record as “no significant differences”. For the same compound, the “Reduction of CDK9 binding relative to PMA alone” value in assay [3] is given as ~ 3.8 fold. Further, the IC50 (usually the concentration that inhibits the measured activity by half) in assay [4] is 1070 nM. Also, the “Effect on stability of WT BD1 (TSA)” value in assay [5] is on record as “dose-dependently increased the stability”. For the same compound, in assay [6], the “Effect on stability of BD1 E151A mutant (TSA)” value was “almost no effect”.
